Test results: patent US20090036448A1, “PYRIMIDINE DERIVATIVES AND METHODS OF TREATMENT RELATED TO THE USE THEREOF” (TAISHO PHARMECUTICAL CO., LTD., priority 2004, published 2009)

Each molecule was assayed against MCH receptor (Homo sapiens, UniProt Q99705) (assay: Receptor binding assay with Radiolabelled MCH Ligand). Conditions: class by percent of control at 10^-7 M or IC50.
MCH receptor, sequence (Q99705 whole entry): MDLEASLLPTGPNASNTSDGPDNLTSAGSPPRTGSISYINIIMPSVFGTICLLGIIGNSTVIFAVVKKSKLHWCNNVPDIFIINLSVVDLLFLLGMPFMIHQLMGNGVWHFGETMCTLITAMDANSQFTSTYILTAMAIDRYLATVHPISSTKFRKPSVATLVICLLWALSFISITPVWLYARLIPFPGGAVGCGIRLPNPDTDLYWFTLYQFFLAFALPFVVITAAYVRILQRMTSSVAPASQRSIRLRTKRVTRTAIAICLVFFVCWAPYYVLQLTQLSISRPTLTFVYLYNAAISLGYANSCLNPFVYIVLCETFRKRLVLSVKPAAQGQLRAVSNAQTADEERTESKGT
Set-up: expressed in transfected cells; host or cells: 293 cells (human kidney, ATCC), transient transfection; crude membranes
Excerpt: In addition to the methods described herein, another means for evaluating a test compound is by determining binding affinities to the MCH receptor. This type of assay generally requires a radiolabelled ligand to the MCH receptor. Absent the use of known ligands for the MCH receptor and radiolabels thereof, compounds of Formula (I) can be labelled with a radioisotope and used in an assay for evaluating the affinity of a test compound to the MCH receptor.
A radiolabelled MCH compound of Formula (I) can be used in a screening assay to identify/evaluate compounds. In general terms, a newly synthesized or identified compound (i.e., test compound) can be evaluated for its ability to reduce binding of the “radiolabelled compound of Formula (I)” to the MCH receptor. Accordingly, the ability to compete with the “radio-labelled compound of Formula (I)” or Radiolabelled MCH Ligand for the binding to the MCH receptor directly correlates to its binding affinity of the test compound to the MCH receptor.
293 cells (human kidney, ATCC), transiently transfected with 10 μg human MCH receptor and 60 μl Lipofectamine (per 15-cm dish), are grown in the dish for 24 hours (75% confluency) with a media change and removed with 10 mL/dish of Hepes-EDTA buffer (20 mM Hepes+10 mM EDTA, pH 7.4). The cells are then centrifuged in a Beckman Coulter centrifuge for 20 minutes, 17,000 rpm (JA-25.50 rotor). Subsequently, the pellet is resuspended in 20 mM Hepes+1 mM EDTA, pH 7.4 and homogenized with a 50-mL Dounce homogenizer and again centrifuged. After removing the supernatant, the pellets can be stored at −80° C., until used in binding assay. When used in the assay, membranes are thawed on ice for 20 minutes and then 10 mL of incubation buffer (20 mM Hepes, 1 mM MgCl2, 100 mM NaCl, pH 7.4) added. The membranes are then vortexed to resuspend the crude membrane pellet and homogenized with a Brinkmann PT-3100 Polytron homogenizer for 15 seconds at setting 6. The concentration of membrane protein is determined using the BRL Bradford protein assay.
For total binding, a total volume of 50 ul of appropriately diluted membranes (diluted in assay buffer containing 50 mM Tris HCl (pH 7.4), 1 mM MgCl2, and 1 mM EDTA; 5-50 ug protein) is added to 96-well polyproylene microtiter plates followed by addition of 100 μl of assay buffer and 50 μl of Radiolabelled MCH Ligand. For nonspecific binding, 50 μl of assay buffer is added instead of 100 μl and an additional 50 μl of 10 uM cold MCH is added before 50 μl of Radiolabelled MCH Ligand is added. Plates are then incubated at room temperature for 60-120 minutes. The binding reaction is terminated by filtering assay plates through a Microplate Devices GF/C Unifilter filtration plate with a Brandell 96-well plate harvester followed by washing with cold 50 mM Tris HCl, pH 7.4 containing 0.9% NaCl. Then, the bottom of the filtration plate are sealed, 50 ul of Optiphase Supermix is added to each well, the top of the plates are sealed, and plates are counted in a Trilux MicroBeta scintillation counter. For compound competition studies, instead of adding 100 μl of assay buffer, 100 μl of appropriately diluted test compound is added to appropriate wells followed by addition of 50 μl of Radiolabelled MCH Ligand.
The test compounds are initially assayed at 1 and 0.1 μM and then at a range of concentrations chosen such that the middle dose would cause about 50% inhibition of a Radiolabelled MCH Ligand binding (i.e., IC50). Specific binding in the absence of test compound (BO) is the difference of total binding (BT) minus non-specific binding (NSB) and similarly specific binding (in the presence of test compound) (B) is the difference of displacement binding (BD) minus non-specific binding (NSB). IC50 is determined from an inhibition response curve, logit-log plot of % B/BO vs. concentration of test compound.
Ki is calculated by the Cheng and Prustoff transformation: […]
In the case of `Cc1cc(C)c(NC(=S)N[C@H]2CC[C@@H](Nc3cc(N(C)C)nc(C)n3)CC2)c(C)c1` [compound 437, N-(cis-4-{[6-(dimethylamino)-2-methylpyrimidin-4-yl]amino}cyclohexyl)-N′-mesitylthiourea], the class is reported as 2 (Class 2: The value of percent of control at 10^−7 M was from 40% to 60% or the value of IC50 was from 50 nM to 200 nM.).
With `CCCCCc1ccc(CN[C@H]2CC[C@@H](Nc3cc(N(C)C)nc(C)n3)CC2)cc1` [compound 397] the class was 3 (Class 3: The value of percent of control at 10^−7 M was more than 60% or the value of IC50 was more than 200 nM.).
`Cc1nc(N[C@H]2CC[C@@H](NC(=O)/C=C/c3cccc(C(F)(F)F)c3)CC2)cc(N(C)C)n1` [compound 262] was tested, and the class was 3 (Class 3: The value of percent of control at 10^−7 M was more than 60% or the value of IC50 was more than 200 nM.).
In the case of `Cc1ccc(SC(CC(=O)c2ccc(F)cc2)C(=O)N[C@H]2CC[C@@H](Nc3cc(N(C)C)nc(C)n3)CC2)cc1` (relative stereo) [compound 311], the class is reported as 3 (Class 3: The value of percent of control at 10^−7 M was more than 60% or the value of IC50 was more than 200 nM.).
In the case of `Cc1nc(N[C@H]2CC[C@@H](NCc3ccno3)CC2)cc(N(C)C)n1` [compound 374], the class is reported as 3 (Class 3: The value of percent of control at 10^−7 M was more than 60% or the value of IC50 was more than 200 nM.).
`CC(=O)N[C@H]1CC[C@@H](Nc2cc(N(C)C)nc(C)n2)CC1` [compound 199] was tested, and the class was 3 (Class 3: The value of percent of control at 10^−7 M was more than 60% or the value of IC50 was more than 200 nM.).
In the case of `Cc1nc(N[C@H]2CC[C@@H](NCCc3ccc(F)cc3)CC2)cc(N(C)C)n1` [compound 395], the class is reported as 3 (Class 3: The value of percent of control at 10^−7 M was more than 60% or the value of IC50 was more than 200 nM.).
For `Cc1nc(N[C@H]2CC[C@@H](NCc3ccc(C(C)(C)C)cc3)CC2)cc(N(C)C)n1` [compound 356], the class was 3 (Class 3: The value of percent of control at 10^−7 M was more than 60% or the value of IC50 was more than 200 nM.).
With `Cc1nc(N[C@H]2CC[C@@H](NC(=O)c3cn(S(=O)(=O)c4ccccc4)c4ccccc34)CC2)cc(N(C)C)n1` [compound 348] the class was 3 (Class 3: The value of percent of control at 10^−7 M was more than 60% or the value of IC50 was more than 200 nM.).
In the case of `Cc1nc(N[C@H]2CC[C@@H](NCc3ccc(SC(F)(F)F)cc3)CC2)cc(N(C)C)n1` [compound 405], the class is reported as 3 (Class 3: The value of percent of control at 10^−7 M was more than 60% or the value of IC50 was more than 200 nM.).
In the case of `Cc1nc(N[C@H]2CC[C@@H](NC(=O)C(=O)c3ccccc3)CC2)cc(N(C)C)n1` [compound 349], the class is reported as 3 (Class 3: The value of percent of control at 10^−7 M was more than 60% or the value of IC50 was more than 200 nM.).
`Cc1nc(N[C@H]2CC[C@@H](NC(=O)C(C)c3ccc(C(=O)c4cccs4)cc3)CC2)cc(N(C)C)n1` (relative stereo) [compound 312] was tested, and the class was 3 (Class 3: The value of percent of control at 10^−7 M was more than 60% or the value of IC50 was more than 200 nM.).
For `COC(=O)c1ccc(C(=O)N[C@H]2CC[C@@H](Nc3cc(N(C)C)nc(C)n3)CC2)cc1` [compound 227], the class was 3 (Class 3: The value of percent of control at 10^−7 M was more than 60% or the value of IC50 was more than 200 nM.).
With `Cc1nc(N[C@H]2CC[C@@H](NC(=O)c3ccccc3C(=O)c3ccc(F)cc3)CC2)cc(N(C)C)n1` [compound 304] the class was 3 (Class 3: The value of percent of control at 10^−7 M was more than 60% or the value of IC50 was more than 200 nM.).
In the case of `Cc1nc(N[C@H]2CC[C@@H](NCCOCc3ccccc3)CC2)cc(N(C)C)n1` [compound 359], the class is reported as 3 (Class 3: The value of percent of control at 10^−7 M was more than 60% or the value of IC50 was more than 200 nM.).
`Cc1nc(N[C@H]2CC[C@@H](NC(=O)c3ccc(Oc4ccccc4)cc3)CC2)cc(N(C)C)n1` [compound 326] was tested, and the class was 3 (Class 3: The value of percent of control at 10^−7 M was more than 60% or the value of IC50 was more than 200 nM.).
In the case of `Cc1nc(N[C@H]2CC[C@@H](NS(=O)(=O)c3cccc([N+](=O)[O-])c3)CC2)cc(N(C)C)n1` [compound 504], the class is reported as 3 (Class 3: The value of percent of control at 10^−7 M was more than 60% or the value of IC50 was more than 200 nM.).
With `Cc1nc(N[C@H]2CC[C@@H](NCCSc3ccccc3)CC2)cc(N(C)C)n1` [compound 391] the class was 3 (Class 3: The value of percent of control at 10^−7 M was more than 60% or the value of IC50 was more than 200 nM.).
In the case of `CCc1cccc(C(C)C)c1NC(=O)N[C@H]1CC[C@@H](Nc2cc(N(C)C)nc(C)n2)CC1` [compound 419], the class is reported as 3 (Class 3: The value of percent of control at 10^−7 M was more than 60% or the value of IC50 was more than 200 nM.).
For `Cc1nc(N[C@H]2CC[C@@H](NC(=O)CCCCCCCCCCc3ccccc3)CC2)cc(N(C)C)n1` [compound 301], the class was 3 (Class 3: The value of percent of control at 10^−7 M was more than 60% or the value of IC50 was more than 200 nM.).
With `Cc1nc(N[C@H]2CC[C@@H](NC(=O)CCc3ccccc3)CC2)cc(N(C)C)n1` [compound 258] the class was 3 (Class 3: The value of percent of control at 10^−7 M was more than 60% or the value of IC50 was more than 200 nM.).
With `Cc1nc(N[C@H]2CC[C@@H](NC(=O)Oc3ccccc3)CC2)cc(N(C)C)n1` [compound 464, phenyl (cis-4-{[6-(dimethylamino)-2-methylpyrimidin-4-yl]amino}cyclohexyl)carbamate] the class was 3 (Class 3: The value of percent of control at 10^−7 M was more than 60% or the value of IC50 was more than 200 nM.).
`Cc1nc(N[C@H]2CC[C@@H](NCc3cccs3)CC2)cc(N(C)C)n1` [compound 388] was tested, and the class was 3 (Class 3: The value of percent of control at 10^−7 M was more than 60% or the value of IC50 was more than 200 nM.).
With `Cc1nc(N[C@H]2CC[C@@H](NC(=O)c3ccc(F)cc3)CC2)cc(N(C)C)n1` [compound 221, N-(cis-4-{[6-(dimethylamino)-2-methylpyrimidin-4-yl]amino}cyclohexyl)-4-fluorobenzamide] the class was 3 (Class 3: The value of percent of control at 10^−7 M was more than 60% or the value of IC50 was more than 200 nM.).
For `CCCc1ccc(S(=O)(=O)N[C@H]2CC[C@@H](Nc3cc(N(C)C)nc(C)n3)CC2)cc1` [compound 487], the class was 3 (Class 3: The value of percent of control at 10^−7 M was more than 60% or the value of IC50 was more than 200 nM.).
For `CC(=O)c1ccc(S(=O)(=O)N[C@H]2CC[C@@H](Nc3cc(N(C)C)nc(C)n3)CC2)cc1` [compound 484], the class was 3 (Class 3: The value of percent of control at 10^−7 M was more than 60% or the value of IC50 was more than 200 nM.).
`Cc1nc(N[C@H]2CC[C@@H](NS(=O)(=O)c3ccc(Oc4ccccc4)cc3)CC2)cc(N(C)C)n1` [compound 496] was tested, and the class was 3 (Class 3: The value of percent of control at 10^−7 M was more than 60% or the value of IC50 was more than 200 nM.).
For `Cc1nc(N[C@H]2CC[C@@H](NC(=O)CC(C)C(F)(F)F)CC2)cc(N(C)C)n1` (relative stereo) [compound 314], the class was 3 (Class 3: The value of percent of control at 10^−7 M was more than 60% or the value of IC50 was more than 200 nM.).
For `Cc1nc(N[C@H]2CC[C@@H](NC(=O)c3ccc(OC(F)(F)F)cc3)CC2)cc(N(C)C)n1` [compound 248], the class was 3 (Class 3: The value of percent of control at 10^−7 M was more than 60% or the value of IC50 was more than 200 nM.).
In the case of `COc1ccccc1OC(=O)N[C@H]1CC[C@@H](Nc2cc(N(C)C)nc(C)n2)CC1` [compound 456], the class is reported as 3 (Class 3: The value of percent of control at 10^−7 M was more than 60% or the value of IC50 was more than 200 nM.).
